In patent US9603354B2, “Protective solutions for organs” (DR. FRANZ KOEHLER CHEMIE GMBH, priority 2002, dated 2017):

Key:
[1] = test system: rat liver endothelial cells; test: Hypothermic injury of cultivated rat liver endothelial cells, LDH release (FIG. 1); assay type: cell-based; details: 1 mM; 72 hrs at 4° C. in UW solution, aerobic; rewarmed 3 hrs at 37° C. in cell culture medium
Description: Cultivated rat liver endothelial cells were incubated for 72 hrs at 4° C. in University of Wisconsin solution (UW) under aerobic conditions in the presence of, and in the absence of 1 mM of salicyl-N-methylhydroxamic acid, and subsequently rewarmed for 3 hrs in a cell culture medium (37° C.). The release of cytosolic lactate dehydrogenase (LDH) served as the parameter of the cell damage.

[2] = Neutralization curve / buffer capacity (FIG. 3); assay type: physicochemical; details: for usable buffer capacity in the range of the physiological pH value: based on the ratio of spent base to substrate
Text: The usable buffer capacity in the range of the physiological pH value; with N-acetylhistidine 60%, and with histidine 30% based on the ratio of spent base to substrate.

rat hepatocytes [3] = test: Hypothermic injury of cultivated rat hepatocytes in UW solution, LDH release (FIG. 2); assay type: cell-based; details: 1 mM; 24 hrs at 4° C. in UW solution, aerobic; reheated 3 hrs at 37° C. in cell culture medium
Description: Cultivated rat hepatocytes were incubated for 24 hrs at 4° C. in a University of Wisconsin solution (UW) under aerobic conditions in the presence of, and in the absence of 1 mM of 3,4-dimethoxy-N-methyl-benzohydroxamic acid, and subsequently reheated for 3 hrs in a cell culture medium (37° C.). The secretion of cytosolic lactate […] (LDH) served as the parameter of the cell damage.

hepatocytes = test: Cell damage of hepatocytes by hydrogenperoxide (FIG. 5); assay type: cell-based; details: 1 mM/l in N4 solution + 20 mM/l H2O2
Description: 1: N4+20 mM/l H2O2 • graph no. 2: N4+20 mM/l H2O2+1 mM/l 4-chloro-N-methyl-benzohydroxamic acid • graph no. 3: N4+20 mM/l H2O2+1 mM/l 2-hydroxy-3-methyl-isocarbosteryl • graph no. 4: N4+20 mM/l H2O2+1 mM/l 3,4,5-trimethoxy-N-methyl-benzohydroxamic acid • graph no. 5: N4+20 mM/l H2O2+1 mM/l 3,4-dimethoxy-N-methyl-hydroxamic acid, N4 meaning the solution according to example II given hereinafter, but without Trolox and without hydroxamic acid derivative.

[4] = test system: iron-dependent hypothermic injury, cold-induced apoptosis; test: Inhibition of iron-dependent hypothermic injury / cold-induced apoptosis by iron-chelating agents; assay type: cell-based
Text: Iron-chelating agents may serve for the inhibition of the iron-dependent hypothermic injury, or of the cold-induced apoptosis.

rat hepatocytes [5] = test: Toxicity of histidine under warm conditions in cultivated rat hepatocytes (FIG. 4); assay type: cell-based; details: 198 mM; 5 hrs at 37° C., aerobic, Krebs-Henseleit buffer, pH 7.2
Description: Cultivated rat hepatocytes were incubated for 5 hrs at 37° C. under aerobic conditions in the presence of, and in the absence of 198 mM of L-histidine, or 198 mM of N-acetylhistidine. The base solution was Krebs-Henseleit buffer (KH), a physiological saline solution often used in cell cultures; the NaCl concentration of the histidine (derivative) containing solution was decreased by 99 mM and the histidine (derivative) solution was adjusted by the addition of HCl or NAOH to pH 7.2.

| SMILES | protection from cell damage by hydrogenperoxide (hepatocytes) | effectiveness in avoiding iron-dependent hypothermic injury [4] | further results |
| --- | --- | --- | --- |
| CN(O)C(=O)c1ccccc1O [salicyl-N-methylhydroxamic acid] | – | – | inhibition of hypothermic injury (release of cytosolic LDH) [1]: inhibition of hypothermic injury |
| CC(=O)N[C@@H](Cc1c[nH]cn1)C(=O)O [N-acetylhistidine] | – | – | usable buffer capacity in the range of the physiological pH value [2]: 60%; buffer capacity improved by factor compared to histidine/histidine HCl ([2]; factor versus histidine/histidine HCl): 2 |
| COc1ccc(C(=O)N(C)O)cc1OC [3,4-dimethoxy-N-methyl-benzohydroxamic acid] | protection | – | inhibition of hypothermic injury (cytosolic LDH) (rat hepatocytes [3]): inhibition of hypothermic injury |
| O=C(O)CN(CCN(CC(=O)O)CC(=O)O)CC(=O)O [EDTA] | – | ineffective | – |
| COc1cc(C(=O)N(C)O)cc(OC)c1OC [3,4,5-trimethoxy-N-methyl-benzohydroxamic acid] | protection | – | – |
| N[C@@H](Cc1c[nH]cn1)C(=O)O [histidine, L-histidine] | – | ineffective | usable buffer capacity in the range of the physiological pH value [2]: 30%; toxicity under warm conditions (rat hepatocytes [5]): toxicity |
| CN(O)C(=O)c1ccc(Cl)cc1 [4-chloro-N-methyl-benzohydroxamic acid] | protection | – | – |
| Cc1cc2ccccc2c(=O)n1O [2-hydroxy-3-methyl-isocarbosteryl, 2-hydroxy-3-methyl-isocarbostyril] | protection | – | – |
| O=c1c2ccccc2nnn1O [3,4-dihydro-3-hydroxy-4oxo-1,2,3-benzotriazine] | – | ineffectiveness | – |
| O=C1CCC(=O)N1O [N-hydroxysuccinimide] | – | ineffectiveness | – |
